# Read-outs that look alike come from different tables or passages of the source. Where a SMILES comes first, the peptide text is derived from it.
# Experiments:
# [1] = Repeated dose pharmacokinetics of intravenous CN-105; type: in vivo, human; settings: for Ratio 2/1: AUCTAU2/AUCTAU1, repeated 1 mg/kg i.v. infusions over 30 min; for Ratio 13/1: AUCTAU13/AUCTAU1, repeated 1 mg/kg i.v. infusions over 30 min; for AUCTAU1 / AUCTAU2 / AUCTAU13: repeated 1 mg/kg i.v. infusions over 30 min; for AUCTAU2: dose 2; for AUCTAU13: dose 13
# [2] = in vivo, iv
# [3] = rodent, GLP, 5 mg/kg/dose four times per day (20 mg/kg/day) for 14 days; cited from earlier work
# [4] = beagle, GLP, 5 mg/kg/dose four times per day (20 mg/kg/day) for 14 days; cited from earlier work
# [5] = murine pharmacokinetics; cited from earlier work
# [6] = Single ascending dose pharmacokinetics of intravenous CN-105 in healthy adults
# [7] = Safety and tolerability in healthy adult subjects; settings: healthy adults, single 0.01-1.0 mg/kg and repeated 1 mg/kg i.v.
# [8] = healthy adults, 1 mg/kg i.v. every 6 h for 72 h
smiles,measurement,setting,value
CC(=O)N[C@H](C(=O)N[C@@H](CO)C(=O)N[C@@H](CCCNC(=N)N)C(=O)N[C@@H](CCCNC(=N)N)C(=O)N[C@@H](CCCNC(=N)N)C(N)=O)C(C)C [CN-105] (Ac-VSRRR-NH2; N-terminus and C-terminus assumed),accumulation on repeated dosing,"[1]; 1 mg/kg i.v. every 6 h for 72 h, judged by AUCTAU ratios between time points",no significant accumulation
same,Ratio 2/1,[1]; geometric mean,1.1
same,Ratio 2/1,[1]; mean of subjects,1.1
same,Ratio 2/1,[1]; median,1.1
same,Ratio 13/1,[1]; geometric mean,1.2
same,Ratio 13/1,[1]; mean of subjects,1.2
same,Ratio 13/1,[1]; median,1.3
same,time at which trough concentrations reached a stable plateau,[1]; [8],≤ 20 h
same,time to steady state,[1]; [8],≤ 24 h
same,half-life,"[1]; human, plasma, iv, 1 mg/kg",3.6 h
same,AUC(0-t),"[1]; human, plasma, iv, 1 mg/kg, AUCTAU1, repeated 1 mg/kg i.v. infusions over 30 min, dose 1, geometric mean",9540 ng·h/mL
same,AUCTAU1,"[1]; dose 1, maximum among subjects",11431.3
same,AUCTAU1,"[1]; dose 1, median",9911.7
same,AUCTAU1,"[1]; dose 1, minimum among subjects",7425.1
same,AUCTAU2,[1]; geometric mean,10506.5
same,AUCTAU2,[1]; maximum among subjects,12581.6
same,AUCTAU2,[1]; median,10448.8
same,AUCTAU2,[1]; minimum among subjects,8990.5
same,AUCTAU13,[1]; geometric mean,11328.6
same,AUCTAU13,[1]; maximum among subjects,14203.2
same,AUCTAU13,[1]; median,11600.4
same,AUCTAU13,[1]; minimum among subjects,9382.1
same,T1/2,[2]; 0.01 mg/kg,2.3 ± 0.5
same,T1/2,[2]; 0.03 mg/kg,2.4 ± 0.5
same,T1/2,[2]; 0.1 mg/kg,3.3 ± 0.6
same,T1/2,[2]; 0.3 mg/kg,3.6 ± .4
same,T1/2,[2]; 1 mg/kg,3.5 ± 0.3
same,tolerability of repeated intravenous administration,[3],well-tolerated
same,tolerability of repeated intravenous administration,[4],well-tolerated
same,half-life predicted by animal modeling,[5],0.5 h
same,observed half-life at higher doses,"[6]; healthy adults, i.v., higher doses",3.6 h
same,half-life,"[6]; human, plasma, iv",3.5 h
same,AUC(0-inf),"[6]; human, plasma, iv, 0.01 mg/kg",95.9 ± 20.2 ng·h/mL
same,Cmax,"[6]; human, plasma, iv, 0.01 mg/kg",35.7 ± 10.9 ng/mL
same,Vd,"[6]; human, plasma, iv, 0.01 mg/kg",29.8 ± 3.2 L
same,clearance,"[6]; human, plasma, iv, 0.01 mg/kg",150 mL/min
same,AUC(0-inf),"[6]; human, plasma, iv, 0.03 mg/kg",281 ± 39.6 ng·h/mL
same,Cmax,"[6]; human, plasma, iv, 0.03 mg/kg",108 ± 25.5 ng/mL
same,Vd,"[6]; human, plasma, iv, 0.03 mg/kg",30.4 ± 8 L
same,clearance,"[6]; human, plasma, iv, 0.03 mg/kg",150 mL/min
same,AUC(0-inf),"[6]; human, plasma, iv, 0.1 mg/kg",1130 ± 194 ng·h/mL
same,Cmax,"[6]; human, plasma, iv, 0.1 mg/kg",408 ± 129 ng/mL
same,Vd,"[6]; human, plasma, iv, 0.1 mg/kg",38.9 ± 12 L
same,clearance,"[6]; human, plasma, iv, 0.1 mg/kg",137 mL/min
same,AUC(0-inf),"[6]; human, plasma, iv, 0.3 mg/kg",2670 ± 272 ng·h/mL
same,Cmax,"[6]; human, plasma, iv, 0.3 mg/kg",966 ± 209 ng/mL
same,Vd,"[6]; human, plasma, iv, 0.3 mg/kg",45.6 ± 11.2 L
same,clearance,"[6]; human, plasma, iv, 0.3 mg/kg",147 mL/min
same,AUC(0-inf),"[6]; human, plasma, iv, 1 mg/kg",9550 ± 1280 ng·h/mL
same,Cmax,"[6]; human, plasma, iv, 1 mg/kg",3940 ± 507 ng/mL
same,Vd,"[6]; human, plasma, iv, 1 mg/kg",38.4 ± 8.1 L
same,clearance,"[6]; human, plasma, iv, 1 mg/kg",128 mL/min
same,"changes in serial ECG, vital signs or clinical laboratory tests",[7],No concerning changes were observed
